In patent US20190070159A1, “NOVEL PHARMACEUTICAL USES” (TAKEDA PHARMACEUTICAL COMPANY LIMITED, priority 2015, published 2019):

What was measured:
[1] = test system: non-erosive reflux disease (NERD); conditions: NERD patients, cited from earlier work
gastric acid secretion [2] = test: 24-hour gastroesophageal pH monitoring, phase 3 study in PPI-resistant EE patients; format: in vivo, human
Protocol: (§1) This was a phase 3, randomized, double-blind, parallel-group, multicenter study to evaluate the dose-response relationships of the acid-inhibitory effect and efficacy of TAK-438 (20 mg and 40 mg) in patients with PPI-resistant EE of LA Classification Grades A to D.
(§2) A patient with PPI-resistant EE was defined as a patient who had EE of LA Classification Grades A to D endoscopically confirmed at the examination in the run-in period after receiving a regular or higher PPI dose for at least 8 weeks until immediately before the start of the run-in period. This study consisted of a 7- to 14-day run-in period and an 8-week treatment period. Subjects who entered the run-in period orally received 1 capsule of the PPI lansoprazole 30 mg once daily after breakfast for at least 7 days, but not more than 14 days. As a rule, subjects underwent endoscopic examination 2 days before the end of the run-in period, after receiving the study medication for the run-in period for at least 5 days. The acid-inhibitory effect of the study medication during the run-in period was evaluated by monitoring gastroesophageal pH for 24 hours, beginning from the day before the end of the run-in period. The subject was then randomized at a 1:1 ratio to receive either TAK-438 20 mg or 40 mg and entered the treatment period. Subjects orally received the assigned medications once daily after breakfast for 8 weeks from the day after the end of the run-in period.
Efficacy: The primary endpoint was the time course of gastroesophageal pH changes over 24 hours at steady state in the treatment period. The primary measure was gastric and esophageal pH 4 holding time ratios (HTRs). Other measures were gastric and esophageal pH 1, 2, 3, 5, 6, and 7 HTRs, mean gastric pH, and mean esophageal pH.

[3] = test system: PPI-resistant EE of LA Classification Grades A to D; test: EE healing rate after 8-week treatment, phase 3 study in PPI-resistant EE patients; format: in vivo, human
Protocol: as §1, §2
Subject eligibility for this study required that the subject had received a regular or higher dose of PPI for EE treatment for at least 8 weeks until immediately before the start of the run-in period. In addition, the subject had EE for which a regular or higher dose of PPI had not been effective, or more specifically, the subject had EE of LA Classification Grades A to D endoscopically confirmed at the examination in the run-in period.
The secondary endpoint was the EE healing rate after 8-week treatment with TAK-438.

[4] = Safety and tolerability, phase 3 study in PPI-resistant EE patients; format: in vivo, human; conditions: subjects with PPI-resistant EE of LA Grades A to D, 20 mg or 40 mg for 8 weeks
Protocol: as §1
as §2, with “Subjects orally received the assigned medications once daily after breakfast for 8 weeks from the day after the end of the run-in period.” left out

[5] = test system: GERD symptoms (heartburn and acid regurgitation); test: Clinical study in PPI partial responders (NERD and LA grade A EE), symptom diary; format: in vivo, human; conditions: TAK-438 20 mg QD or 40 mg QD for 4 weeks
Protocol: A study is held to evaluate TAK-438 (20 mg QD and 40 mg QD) in subjects who have a history of heartburn-predominant GERD despite an adequate course of PPI treatment and who are then confirmed to have a partial response to a 4-week treatment course with a PPI (esomeprazole 40 mg QD).
Subjects are eligible for participation in the study if they: • have a documented history of symptoms of both heartburn and acid regurgitation prior to entry into the study; • have a history of heartburn-predominant GERD despite an adequate course of PPI treatment; • continue to have symptoms of heartburn (with or without regurgitation) following 4 weeks treatment with a high dose of esomeprazole 40 mg QD; • have symptoms of heartburn (with or without regurgitation) which increase following a 2-week washout period compared with the prior 4 week course of high dose esomeprazole 40 mg QD.
The subjects entered into the study are NERD and mild (LA grade A, as defined by the Los Angeles Classification) erosive esophagitis (EE). […]

gastric acid secretion [6] = conditions: rats, versus the PPI lansoprazole; cited from earlier work
erosive esophagitis (EE) = conditions: patients with erosive esophagitis; cited from earlier work
pH holding time = conditions: cited from earlier work
[7] = TAK-438 20 mg once daily, after 2 weeks, subjects with PPI-resistant EE
[8] = TAK-438 40 mg once daily, after 2 weeks, subjects with PPI-resistant EE
[9] = both treatment groups (20 mg and 40 mg), after 2 weeks

## Cc1cccc(C)c1CNc1cc(C(=O)NCCO)cn2c(C)c(C)nc12 [AZD0865]
[1]; 4 weeks
  clinical benefit over esomeprazole in treatment of NERD symptoms: did not provide clinical benefit over esomeprazole
[1]
  duration of effect: prolonged, dose-dependent duration of effect
  inhibition of acid production: rapid inhibition of acid production

## CNCc1cc(-c2ccccc2F)n(S(=O)(=O)c2cccnc2)c1.O=C(O)/C=C/C(=O)O [TAK-438, 1-[5-(2-fluorophenyl)-1-(pyridin-3-ylsulfonyl)-1H-pyrrol-3-yl]-N-methylmethanamine]
Gastric acid secretion [2]; [7]
  mean 24-hour esophageal pH 4 HTR: 98.41%
  mean 24-hour gastric pH 4 HTR: 96.46%
Gastric acid secretion [2]; TAK-438 20 mg or 40 mg, nighttime as well as daytime, subjects with PPI-resistant EE
  effect on gastric acid secretion: suppressed gastric acid secretion
Gastric acid secretion [2]; [8]
  mean 24-hour esophageal pH 4 HTR: 99.86%
  mean 24-hour gastric pH 4 HTR: 100.00%
Gastric acid secretion [2]; after 2 weeks, differences between groups not statistically significant
  increases in gastric and esophageal pH 4 HTRs, 40 mg versus 20 mg group: greater in the TAK-438 40 mg group than in the TAK-438 20 mg group
Gastric acid secretion [2]; [9]
  mean 24-hour esophageal pH 1, 2, 3, 6, and 7 HTRs, change from baseline: remained almost unchanged
  mean 24-hour esophageal pH 5 HTR, change from baseline: slightly increased
  mean 24-hour gastric pH 2, 3, 5, 6, and 7 HTRs, change from baseline: increased from baseline
Gastric acid secretion [2]; both treatment groups (20 mg and 40 mg), after 2 weeks of TAK-438, baseline also 100.00%
  mean 24-hour gastric pH 1 HTR: 100.00%
Gastric acid secretion [2]; both treatment groups, 12-hour and 24-hour periods
  mean gastric pH, change from baseline: increased from baseline
Gastric acid secretion [2]; both treatment groups, changes greater during nighttime than daytime
  mean gastric pH 4 HTRs during daytime and nighttime: increased during both the daytime and nighttime with statistical significance
Gastric acid secretion [2]; both treatment groups, lesser extent than mean gastric pH
  mean esophageal pH, change from baseline: also increased
Gastric acid secretion [2]; both treatment groups, lower limits of 95% CI of mean changes greater than 0
  significance of increase from baseline in 24-hour gastric pH 4 HTR: statistically significant
Gastric acid secretion [2]; either treatment group (20 mg, 40 mg)
  significance of change from baseline in 24-hour esophageal pH 4 HTR: not statistically significant
[3]; TAK-438 20 mg group, 4 out of 9 subjects
  EE healing rate after 8-week treatment: 44.4%
[3]; TAK-438 40 mg group, 5 out of 9 subjects
  EE healing rate after 8-week treatment: 55.6%
[3]; subjects with PPI-resistant EE of LA Grades A to D, 20 mg or 40 mg
  overall efficacy: effective
[4]
  safety and tolerability: safe, and well tolerated
[5]
  heartburn and/or regurgitation symptoms: can reduce heartburn and/or regurgitation symptoms throughout the whole day and night
  percentage of heartburn-free days and nights (24-hour periods): can increase the percentage of heartburn-free days and nights
Gastric acid secretion [6]
  inhibitory action on gastric acid secretion compared with lansoprazole: more potent and longer-lasting
Erosive esophagitis (EE)
  efficacy in treatment of EE and maintenance of EE healing: effective for the treatment of EE and maintenance of EE healing
pH holding time; after dosing, maintained with chronic dosing
  time to near maximal effect on pH holding time: ≤ 24 hours
pH holding time; after the first dose, single and multiple repeat-dosing studies
  onset of action: rapid onset of action after the first dose
